The text below walks through data of publication PMC2586422 (Bioorganic & medicinal chemistry, 2008).

Test [1] relates to MCF-7, SF-268, NCI-H460. Briefly: Human cell growth inhibition, three cell lines together. The format is cell-based. The settings on record: read-out: IC50 averaged over the three cell lines investigated.
Test [2] concerns HIV-1 RT. The following applies: cited from earlier work.
Test [3] addresses T1, Human FPPS (farnesyl diphosphate synthase) (Homo sapiens, UniProt P14324).
T1 sequence (P14324 1-419): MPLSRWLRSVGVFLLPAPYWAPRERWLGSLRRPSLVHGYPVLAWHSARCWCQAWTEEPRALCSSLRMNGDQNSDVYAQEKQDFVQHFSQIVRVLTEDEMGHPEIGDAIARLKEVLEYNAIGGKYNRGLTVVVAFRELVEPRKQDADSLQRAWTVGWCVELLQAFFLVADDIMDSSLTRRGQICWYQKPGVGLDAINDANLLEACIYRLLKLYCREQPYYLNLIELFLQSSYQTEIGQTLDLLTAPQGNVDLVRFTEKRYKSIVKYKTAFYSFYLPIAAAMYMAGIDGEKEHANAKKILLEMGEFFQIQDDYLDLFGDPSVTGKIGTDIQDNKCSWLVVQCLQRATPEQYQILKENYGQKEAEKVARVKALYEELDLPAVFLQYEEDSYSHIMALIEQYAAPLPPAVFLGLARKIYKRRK
Briefly: FPPS inhibition. It is filed as biochemical.

Structures are written as SMILES. pIC50: −log10 of the molar value.

Take `O=P(O)(O)C(Nc1cccc(-c2ccccc2)c1)P(=O)(O)O` [Compound 3]: the pIC50 in test [1] was about 3.64. Moreover, the “activity in inhibiting NRTI excision (in words)” value in test [2] (previous work ref 11) is “some activity”.

Consider `NCCC(O)(P(=O)(O)O)P(=O)(O)O` [Compound 4, pamidronate], for which the “inhibition of the phosphorolytic activity of RT (in words)” value in test [2] was “competitively inhibited”.

In test [3], `O=P(O)(O)C(O)(Cc1ccc(Cl)c(Cl)c1)P(=O)(O)O` [Compound 5] had a pIC50 of 5.07.

On to `O=P(O)(O)C(O)(Cn1ccnc1)P(=O)(O)O` [Compound 36, zoledronate], for which, in test [1], the pIC50 was about 4.82.

With `O=P(O)(O)C(O)(Cc1cnc2ccccn12)P(=O)(O)O` [Compound 44, minodronate], in test [1], the pIC50 was about 5.30.

By pIC50 is commonly meant −log10 of the IC50, conventionally taken in molar units.
